Some test systems named below: K-562 leukemia; SK-MEL-5 melanoma; SNB-19 CNS; OVCAR-4 ovarian; NCI-H23 lung; T-47D breast; SW-620 colon; ACHN renal; KM12 colon; SNB-75 CNS.
Assay in all cases: growth of human tumour cells (NCI), 48 h

Each structure is given as a SMILES string.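 All cell lines were grown in 96-well plates and treated with compound for 48 hours. GI50: concentration for 50% inhibition of growth. The concentration for full growth arrest is given as TGI.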 Where a SMILES comes first, the peptide text is derived from it. The star is where a group is joined. Boc = CC(C)(C)OC(=O)*; tBu = CC(C)(C)*

As to `CO[C@]12C[C@@H](CNC(=O)c3cc(Br)c[nH]3)O[C@H]1NC(=O)N2`, the TGI in the assay with K-562 leukemia, with SK-MEL-5 melanoma, in the assay with SNB-19 CNS, in the assay on OVCAR-4 ovarian, with NCI-H23 lung and in the assay with T-47D breast was > 100 µM in each case. Besides, the TGI in the assay on SW-620 colon, in the assay with ACHN renal, in the assay on KM12 colon and with SNB-75 CNS was > 100 µM throughout.
As to `CC(C)(CC1(C)NC(=O)NC1=O)OCc1ccccc1` (stereo not given), the TGI in the assay with K-562 leukemia, in the assay on SK-MEL-5 melanoma, in the assay with SNB-19 CNS, in the assay on OVCAR-4 ovarian, in the assay on NCI-H23 lung and with T-47D breast was > 100 µM throughout. In addition, the TGI in the assay on SW-620 colon, in the assay on ACHN renal, in the assay with KM12 colon and in the assay on SNB-75 CNS was > 100 µM throughout.
Take `Cc1cc(NS(=O)(=O)c2ccc(NC(=O)c3ccc4nc5ccccc5c(Nc5ccc(S(=O)(=O)Nc6cc(C)on6)cc5)c4c3)cc2)no1`: the TGI in the assay on K-562 leukemia, in the assay with SK-MEL-5 melanoma, in the assay with SNB-19 CNS, in the assay with OVCAR-4 ovarian, in the assay on NCI-H23 lung and in the assay with T-47D breast was > 50 µM throughout. The TGI in the assay on SW-620 colon, in the assay on ACHN renal, with KM12 colon and in the assay with SNB-75 CNS was > 50 µM in each case.
With `O=C(O)c1ccccc1CC(Cc1ccccc1)C(=O)O` (stereo not given), the TGI in the assay on K-562 leukemia, with SK-MEL-5 melanoma, in the assay with SNB-19 CNS, with OVCAR-4 ovarian, in the assay with NCI-H23 lung and in the assay with T-47D breast was > 100 µM each time. The TGI with SW-620 colon, in the assay with ACHN renal, in the assay with KM12 colon and in the assay with SNB-75 CNS was > 100 µM throughout.
As to `COC(=O)[C@]1(C)CCCC2(C)C3=C(CCC21)CC1(CC3)SCCS1` (stereo not given in full), the TGI with K-562 leukemia, with SK-MEL-5 melanoma, in the assay with SNB-19 CNS, in the assay with OVCAR-4 ovarian, in the assay on NCI-H23 lung and in the assay with T-47D breast was > 10 µM in each case. The TGI in the assay on SW-620 colon, with ACHN renal, with KM12 colon and with SNB-75 CNS was > 10 µM each time.
In the case of `CC(=O)Oc1ccc(/C=C/C(=O)NCCOC(=O)/C=C/c2ccc(OC(C)=O)c(OC(C)=O)c2)cc1OC(C)=O`, the TGI with K-562 leukemia was > 100 µM; with SK-MEL-5 melanoma, 47.1 µM; in the assay with SNB-19 CNS it was > 100 µM; in the assay with OVCAR-4 ovarian, > 100 µM; in the assay on NCI-H23 lung, 79.4 µM; in the assay on T-47D breast, 98.9 µM. In addition, the TGI in the assay on SW-620 colon is 61.8 µM; with ACHN renal, > 100 µM; in the assay on KM12 colon it was > 100 µM; in the assay on SNB-75 CNS, 79.6 µM.
Turning to `COC(=O)C1(Cc2ccccc2)Cc2c(C)ccc(C)c2C1=O` (stereo not given), the TGI in the assay with K-562 leukemia was > 100 µM; in the assay with SK-MEL-5 melanoma it was 28.8 µM; in the assay on SNB-19 CNS, > 100 µM; in the assay on OVCAR-4 ovarian it was > 100 µM; in the assay with NCI-H23 lung it was > 100 µM; in the assay on T-47D breast, > 100 µM. Besides, the TGI in the assay on SW-620 colon is > 100 µM; in the assay on ACHN renal, > 100 µM; in the assay on KM12 colon, 42.8 µM; with SNB-75 CNS, 61.3 µM.
Consider `CCOC(=O)C1=C(C)N(CC(C)C)C2(O)C(OC)CC(=O)C3C(=O)N(c4ccccc4)C(=O)C132` (stereo not given), for which the TGI with K-562 leukemia is > 100 µM; in the assay with SK-MEL-5 melanoma, 43.9 µM; with SNB-19 CNS, > 100 µM; with OVCAR-4 ovarian it was > 100 µM; in the assay on NCI-H23 lung it was > 100 µM; in the assay on T-47D breast, > 100 µM. Further, the TGI is 77.9 µM in the assay with SW-620 colon, 72 µM with ACHN renal, 90 µM in the assay with KM12 colon and 75.4 µM with SNB-75 CNS.
For `Clc1ccc(Cn2cc(/C=N/n3cnnc3)c3ccccc32)cc1`, the TGI in the assay with K-562 leukemia was > 100 µM; in the assay on SK-MEL-5 melanoma, > 100 µM; with SNB-19 CNS, > 100 µM; in the assay with OVCAR-4 ovarian it was > 100 µM; in the assay on NCI-H23 lung, > 100 µM; with T-47D breast it was 52.3 µM. The TGI is > 100 µM in the assay with SW-620 colon, > 100 µM in the assay with ACHN renal, > 100 µM in the assay on KM12 colon and 68.5 µM with SNB-75 CNS.
On to `CC1=NNC(=O)[C@H]2[C@H]1CCC1[C@@H]2CC[C@]2(C)[C@@H](O)CC[C@@H]12` (stereo not given in full), for which the TGI with K-562 leukemia, in the assay with SK-MEL-5 melanoma, in the assay with SNB-19 CNS, in the assay on OVCAR-4 ovarian, in the assay on NCI-H23 lung and in the assay on T-47D breast was > 100 µM throughout. For the same molecule, the TGI in the assay with SW-620 colon, in the assay with ACHN renal, in the assay on KM12 colon and with SNB-75 CNS was > 100 µM each time.
For `Cc1cc2c3c(c1)CCCN3CCC2`, the TGI in the assay on K-562 leukemia, in the assay on SK-MEL-5 melanoma, in the assay on SNB-19 CNS, in the assay with OVCAR-4 ovarian, in the assay on NCI-H23 lung and in the assay on T-47D breast was > 10 µM throughout. Further, the TGI in the assay on SW-620 colon, in the assay on ACHN renal, in the assay on KM12 colon and in the assay with SNB-75 CNS was > 10 µM in each case.
With `CCCCOc1ccc(S(=O)(=O)/N=C(\N)Nc2ccc(Cl)cc2)cc1`, the TGI in the assay on K-562 leukemia amounted to 37.4 µM; in the assay with SK-MEL-5 melanoma it was 47.8 µM; in the assay on SNB-19 CNS, 33.3 µM; in the assay on OVCAR-4 ovarian, 26.5 µM; in the assay on NCI-H23 lung, 29.9 µM; in the assay on T-47D breast, 29.1 µM. Moreover, the TGI in the assay with SW-620 colon was 32.3 µM; with ACHN renal, 27.7 µM; in the assay with KM12 colon it was 39.6 µM; with SNB-75 CNS it was 36.3 µM.
With `CN(CCCNC(=O)c1c2ccc3ccccc3c2nn1C)CCCNC(=O)c1c2ccc3ccccc3c2nn1C`, the TGI was 12 µM in the assay on K-562 leukemia; 5.92 µM in the assay with SK-MEL-5 melanoma; 28.6 µM in the assay with SNB-19 CNS; 24 µM in the assay on OVCAR-4 ovarian; 29.4 µM with NCI-H23 lung; 32.2 µM with T-47D breast. The TGI was 21.3 µM in the assay on SW-620 colon, 23.8 µM in the assay with ACHN renal, 23.7 µM in the assay with KM12 colon and 21.4 µM with SNB-75 CNS.
For the molecule `CCN(CCCl)c1cc(CN(C)C)cc(NC(=O)c2cc(C(=O)Nc3cc(CN(C)C)cc(N(CC)CCCl)c3)n(C)n2)c1`, the TGI with K-562 leukemia was 1.12 µM; in the assay with SK-MEL-5 melanoma, 2.28 µM; in the assay on SNB-19 CNS, 1.24 µM; in the assay with OVCAR-4 ovarian, 2.8 µM; in the assay on NCI-H23 lung, 3.04 µM; with T-47D breast, 6.43 µM. Moreover, the TGI in the assay with SW-620 colon turned out to be 0.304 µM; in the assay with ACHN renal, 0.749 µM; in the assay on KM12 colon, 0.703 µM; in the assay with SNB-75 CNS, 2.55 µM.
For `CCOP(=O)(/C=C\n1ccc(=O)[nH]c1=O)OCC`, the TGI in the assay with K-562 leukemia, in the assay on SK-MEL-5 melanoma, in the assay on SNB-19 CNS, in the assay with OVCAR-4 ovarian, in the assay on NCI-H23 lung and with T-47D breast was > 100 µM throughout. For the same molecule, the TGI with SW-620 colon, in the assay on ACHN renal, with KM12 colon and with SNB-75 CNS was > 100 µM each time.
In the case of `COc1cccc(/C=C2/S/C(=N/Nc3nc(C)c(C(C)=O)s3)NC2=O)c1O`, the TGI in the assay with K-562 leukemia is > 100 µM; in the assay with SK-MEL-5 melanoma it was 43.5 µM; in the assay on SNB-19 CNS, > 100 µM; in the assay with OVCAR-4 ovarian, > 100 µM; with NCI-H23 lung, > 100 µM; in the assay with T-47D breast, 96.5 µM. Besides, the TGI in the assay on SW-620 colon was > 100 µM; in the assay with ACHN renal it was 51.6 µM; with KM12 colon, > 100 µM; in the assay on SNB-75 CNS it was > 100 µM.
Turning to `CC(N)=O.[Cl][Pt][Cl].[NH-]c1ccn(C2OC(CO)C(O)C2O)c(=O)n1` (stereo not given), the TGI with K-562 leukemia, in the assay with SK-MEL-5 melanoma, with SNB-19 CNS, in the assay on OVCAR-4 ovarian, with NCI-H23 lung and in the assay with T-47D breast was > 100 µM in each case. The TGI in the assay with SW-620 colon, in the assay on ACHN renal, in the assay on KM12 colon and with SNB-75 CNS was > 100 µM each time.
Turning to `CCN(CC)C(=S)SSCCO`, the GI50 was 4.21 µM in the assay with K-562 leukemia; 16.5 µM in the assay on SK-MEL-5 melanoma; 95.4 µM in the assay on SNB-19 CNS; 14.7 µM with OVCAR-4 ovarian; 16.4 µM in the assay on NCI-H23 lung; 15.4 µM in the assay on T-47D breast. The GI50 with SW-620 colon was 13.6 µM; with ACHN renal, 18.7 µM; in the assay on KM12 colon, 15 µM; with SNB-75 CNS, 14.8 µM. For the same molecule, the TGI in the assay with K-562 leukemia was 18 µM; in the assay with SK-MEL-5 melanoma, 53.1 µM; in the assay on SNB-19 CNS, > 100 µM; with OVCAR-4 ovarian, 27.9 µM; in the assay with NCI-H23 lung it was 31.5 µM; with T-47D breast, 34.2 µM. Further, the TGI in the assay on SW-620 colon was 26.5 µM; in the assay with ACHN renal, 35.8 µM; in the assay on KM12 colon it was 30.1 µM; in the assay on SNB-75 CNS, 28 µM.
With `CCOP(=O)(/C=C/n1cnc2c(=O)n(C(C)=O)c(N)nc21)OCC`, the TGI with K-562 leukemia, in the assay on SK-MEL-5 melanoma, in the assay with SNB-19 CNS, in the assay with OVCAR-4 ovarian, in the assay with NCI-H23 lung and in the assay on T-47D breast was > 100 µM throughout. Moreover, the TGI in the assay with SW-620 colon, in the assay with ACHN renal, in the assay with KM12 colon and in the assay on SNB-75 CNS was > 100 µM in each case.
In the case of `CC(OC(C)(C)C)C(NC(=O)C(N)CCCCNC(=O)OC(C)(C)C)C(=O)NC(Cc1ccccc1)C(=O)O` (stereo not given) (H-Lys(Boc)-Thr(tBu)-Phe-OH; configuration not given here), the TGI with K-562 leukemia, in the assay with SK-MEL-5 melanoma, with SNB-19 CNS, in the assay with OVCAR-4 ovarian, in the assay on NCI-H23 lung and in the assay on T-47D breast was > 100 µM in each case. In addition, the TGI in the assay with SW-620 colon, with ACHN renal, with KM12 colon and with SNB-75 CNS was > 100 µM in each case.

The values above are taken from PubChem BioAssay (NCI).
